This passage reports Activity and viability results from ChEMBL document CHEMBL4732149, “Evaluation of the cellular protection by novel spiropyrazole compounds in dopaminergic cell death” (Eur J Med Chem, 2021).

For series [1], the system named is SH-SY5Y. In words: Cytotoxicity against human SH-SY5Y cells assessed as reduction in cell viability at 10 to 50 uM measured after 24 hrs by MTT assay. The format is cell-based. The note with it: dose 10-50 µM. Background: Formazan colour is commonly taken as a measure of viable cells.
Series [2] can be described thus: Cytotoxicity against human SH-SY5Y cells assessed as cell viability at 50 uM measured after 24 hrs by MTT assay relative to control. It counts as cell-based. The note with it: read-out: Activity.
Series [3] concerns SH-SY5Y. In words: Neuroprotective activity against […]-induced cell death in human SH-SY5Y cells at 10 to 50 uM preincubated for 1 hr followed by […] stimulation and measured after 24 hrs by MTT assay relative to control. The format is functional. The note with it: dose 10-50 µM, time 25 hrs.
The subject of series [4] is SH-SY5Y. In words: Neuroprotective activity against […]-induced cell death in human SH-SY5Y cells assessed as increase in cell viability preincubated for 1 hr followed by […] stimulation and measured after 24 hrs by MTT assay. The format is functional, cell-based. The note with it: dose 10-50 µM, time 25.0 hrs.
Series [5] concerns SH-SY5Y. Kind of series: Neuroprotective activity against […]-induced cell death in human SH-SY5Y cells assessed as cell viability at 1 uM preincubated for 1 hr followed by […] stimulation and measured after 24 hrs by MTT assay relative to control. The note with it: time 25 hrs, read-out: Activity. It counts as functional.

As for `NC1=NN(c2ccccc2)C(=O)C12[C@@H](c1ccc(Cl)cc1)c1c([nH]n(-c3ccccc3)c1=O)N[C@H]2c1ccc(Cl)cc1` (stereo partly drawn), the values for the Activity result in series [1], in series [3] and in series [4] were “Non-Toxic”, 20.05% and “Dose-dependent effect”, respectively. In series [2], the viability at 24 h, 50 µM stood at 84.9%.

For `NC1=NN(c2ccccc2)C(=O)C12[C@@H](c1cccc(Br)c1)c1c([nH]n(-c3ccccc3)c1=O)N[C@H]2c1cccc(Br)c1` (stereo in doubt; 3c-2) [listing 1 of 2 here], in series [4], the Activity entry is “Dose-dependent effect”.

On to `COc1cc(/C=C/C(=O)CC(=O)/C=C/c2ccc(O)c(OC)c2)ccc1O` [CURCUMIN], for which the viability at 1 µM in series [5] was found to be 80.7%.

For the compound `NC1=NN(c2ccccc2)C(=O)C12[C@@H](c1cccc(Br)c1)c1c([nH]n(-c3ccccc3)c1=O)N[C@H]2c1cccc(Br)c1` (stereo in doubt; 3c-1) [listing 1 of 2 here], the Activity result in series [4] is “Dose-dependent effect”.

Turning to `NC1=NN(c2ccccc2)C(=O)C12[C@@H](c1cccc(Br)c1)c1c([nH]n(-c3ccccc3)c1=O)N[C@H]2c1cccc(Br)c1` (stereo in doubt; 3c-2) [listing 2 of 2 here], in series [3], the Activity is 33.52%.

As to `COc1ccc([C@H]2c3c([nH]n(-c4ccccc4)c3=O)N[C@@H](c3ccc(OC)cc3)C23C(=O)N(c2ccccc2)N=C3N)cc1` (stereo partly drawn), the Activity result in series [1] is “Non-Toxic”; in series [3] it was 26.54%; in series [4], “Dose-dependent effect”.

Regarding `NC1=NN(c2ccccc2)C(=O)C12[C@@H](c1ccccc1[N+](=O)[O-])c1c([nH]n(-c3ccccc3)c1=O)N[C@H]2c1ccccc1[N+](=O)[O-]` (stereo partly drawn), the Activity result in series [1] is “Non-Toxic”; in series [3], 20.21%; in series [4] it was “Dose-dependent effect”.

On to `NC1=NN(c2ccccc2)C(=O)C12[C@@H](c1ccccc1)c1c([nH]n(-c3ccccc3)c1=O)N[C@H]2c1ccccc1` (stereo partly drawn), for which the values for the Activity entry in series [1], in series [3] and in series [4] were “Non-Toxic”, 27.03% and “Dose-dependent effect”, respectively.

Turning to `Cc1ccc([C@H]2c3c([nH]n(-c4ccccc4)c3=O)N[C@@H](c3ccc(C)cc3)C23C(=O)N(c2ccccc2)N=C3N)cc1` (stereo partly drawn), the Activity result in series [1] is “Non-Toxic”; in series [3] it was 28.66%; in series [4], “Dose-dependent effect”.

`NC1=NN(c2ccccc2)C(=O)C12[C@@H](c1cccc([N+](=O)[O-])c1)c1c([nH]n(-c3ccccc3)c1=O)N[C@H]2c1cccc([N+](=O)[O-])c1` (stereo partly drawn): the figures for the Activity entry in series [1], in series [3] and in series [4] were “Non-Toxic”, 22.81% and “Dose-dependent effect”, respectively.

Take `NC1=NN(c2ccccc2)C(=O)C12[C@@H](c1cccs1)c1c([nH]n(-c3ccccc3)c1=O)N[C@H]2c1cccs1` (stereo partly drawn): the results for the Activity result in series [1], in series [3] and in series [4] were “Non-Toxic”, 18.43% and “Dose-dependent effect”, respectively.

Consider `NC1=NN(c2ccccc2)C(=O)C12[C@@H](c1cccc(Br)c1)c1c([nH]n(-c3ccccc3)c1=O)N[C@H]2c1cccc(Br)c1` (stereo in doubt; 3c-1) [listing 2 of 2 here], for which the figures for the Activity result in series [1] and in series [3] were “Non-Toxic” and 30.11%, respectively.
